From patent US20250154686A1, “COMPOUND LIBRARY” (CHUGAI SEIYAKU KABUSHIKI KAISHA, priority 2021, published 2025)

Biological target: T1, Bcl-2 protein (Recombinant Human Bcl-2 Protein) (Homo sapiens, UniProt P10415)
T1 construct: purchased Novus Biologicals NBP2-34889
Assay: AS-MS evaluation of binding of the Example 4 mixture library (1200 compounds/well) to Bcl-2, ASMS ratio (%)
Settings: AS-MS, Example 4 mixture library; for ASMS ratio (%) n = 1: Bcl-2, replicate n = 1; for ASMS ratio (%) n = 2: Bcl-2, replicate n = 2
Summary of the method: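 Binding is read as an ASMS ratio from reverse-phase LC/MS peak data. Samples: 1200 compounds at 20 nM each with 20 μM Bcl-2, 1 h at 23 °C in the dark, then P-2 SEC and organic-solvent extraction; references lacked protein, with and without SEC.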

T1 sequence (P10415 whole entry): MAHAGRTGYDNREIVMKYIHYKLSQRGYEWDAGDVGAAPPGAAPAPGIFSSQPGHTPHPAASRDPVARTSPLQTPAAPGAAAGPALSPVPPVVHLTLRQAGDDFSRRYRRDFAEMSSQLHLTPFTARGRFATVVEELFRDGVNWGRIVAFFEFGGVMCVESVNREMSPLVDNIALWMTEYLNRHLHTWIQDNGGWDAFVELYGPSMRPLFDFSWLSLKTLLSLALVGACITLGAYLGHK

`CCOc1cccc(-c2ccc(C(=O)N3CCN(c4ccc(C(=O)NS(=O)(=O)CCC(F)(F)F)nn4)CC3)cc2C)c1` [Compound B2N003-01, 6-[4-[4-(3-Ethoxyphenyl)-3-methylbenzoyl]piperazin-1-yl]-N-(3,3,3-trifluoropropylsulfonyl)pyridazine-3-carboxamide] was tested, and the “ASMS ratio (%) n = 1” value was 0.0% and the “ASMS ratio (%) n = 2” value was 0.0%.
For `CCOc1cncc(-c2ccc(C(=O)N3CCN(c4ccc(C(=O)NS(=O)(=O)CCC(F)(F)F)nn4)CC3)cc2C)c1` [Compound B2N004-01, 6-[4-[4-(5-Ethoxypyridin-3-yl)-3-methylbenzoyl]piperazin-1-yl]-N-(3,3,3-trifluoropropylsulfonyl)pyridazine-3-carboxamide], the “ASMS ratio (%) n = 1” value was 1.2% and the “ASMS ratio (%) n = 2” value was −2.0%.
In the case of `CCOc1cccc(C#Cc2ccccc2C(=O)N2CCN(c3ccc(C(=O)NS(=O)(=O)CCC(F)(F)F)nn3)CC2)c1` [Compound B2N007-01, 6-[4-[2-[2-(3-Ethoxyphenyl)ethynyl]benzoyl]piperazin-1-yl]-N-(3,3,3-trifluoropropylsulfonyl)pyridazine-3-carboxamide], the “ASMS ratio (%) n = 1” value was 0.0% and the “ASMS ratio (%) n = 2” value was 0.0%.
`CCOc1cncc(C#Cc2ccccc2C(=O)N2CCN(c3ccc(C(=O)NS(=O)(=O)CCC(F)(F)F)nn3)CC2)c1` [Compound B2N008-01, 6-[4-[2-[2-(5-Ethoxypyridin-3-yl)ethynyl]benzoyl]piperazin-1-yl]-N-(3,3,3-trifluoropropylsulfonyl)pyridazine-3-carboxamide] was tested, and the “ASMS ratio (%) n = 1” value was 0.0% and the “ASMS ratio (%) n = 2” value was −0.4%.
In the case of `CCOc1cccc(C#Cc2cncc(C(=O)N3CCN(c4ccc(C(=O)NS(=O)(=O)CCC(F)(F)F)nn4)CC3)c2)c1` [Compound B2N009-01, 6-[4-[5-[2-(3-Ethoxyphenyl)ethynyl]pyridine-3-carbonyl]piperazin-1-yl]-N-(3,3,3-trifluoropropylsulfonyl)pyridazine-3-carboxamide], the “ASMS ratio (%) n = 1” value was 0.0% and the “ASMS ratio (%) n = 2” value was −0.4%.
`CCOc1cncc(C#Cc2cncc(C(=O)N3CCN(c4ccc(C(=O)NS(=O)(=O)CCC(F)(F)F)nn4)CC3)c2)c1` [Compound B2N010-01, 6-[4-[5-[2-(5-Ethoxypyridin-3-yl)ethynyl]pyridine-3-carbonyl]piperazin-1-yl]-N-(3,3,3-trifluoropropylsulfonyl)pyridazine-3-carboxamide] was tested, and the “ASMS ratio (%) n = 1” value was 0.0% and the “ASMS ratio (%) n = 2” value was 0.0%.
For `CCOc1cccc(-c2ccccc2CCC(=O)N2CCN(c3ccc(C(=O)NS(=O)(=O)CCC(F)(F)F)nn3)CC2)c1` [Compound B2N011-01, 6-[4-[3-[2-(3-Ethoxyphenyl)phenyl]propanoyl]piperazin-1-yl]-N-(3,3,3-trifluoropropylsulfonyl)pyridazine-3-carboxamide], the “ASMS ratio (%) n = 1” value was 0.0% and the “ASMS ratio (%) n = 2” value was 0.0%.
`CCOc1cncc(-c2ccccc2CCC(=O)N2CCN(c3ccc(C(=O)NS(=O)(=O)CCC(F)(F)F)nn3)CC2)c1` [Compound B2N012-01, 6-[4-[3-[2-(5-Ethoxypyridin-3-yl)phenyl]propanoyl]piperazin-1-yl]-N-(3,3,3-trifluoropropylsulfonyl)pyridazine-3-carboxamide] was tested, and the “ASMS ratio (%) n = 1” value was 0.0% and the “ASMS ratio (%) n = 2” value was 0.0%.
With `CCOc1cccc(-c2ccc(C(=O)N3CCN(c4ccc(C(=O)NS(=O)(=O)CCC(F)(F)F)nn4)CC3)c3ccccc23)c1` [Compound B2N013-01, 6-[4-[4-(3-Ethoxyphenyl)naphthalene-1-carbonyl]piperazin-1-yl]-N-(3,3,3-trifluoropropylsulfonyl)pyridazine-3-carboxamide] the “ASMS ratio (%) n = 1” value was 0.0% and the “ASMS ratio (%) n = 2” value was 0.0%.
In the case of `CCOc1cncc(-c2ccc(C(=O)N3CCN(c4ccc(C(=O)NS(=O)(=O)CCC(F)(F)F)nn4)CC3)c3ccccc23)c1` [Compound B2N014-01, 6-[4-[4-(5-Ethoxypyridin-3-yl)naphthalene-1-carbonyl]piperazin-1-yl]-N-(3,3,3-trifluoropropylsulfonyl)pyridazine-3-carboxamide], the “ASMS ratio (%) n = 1” value was 0.0% and the “ASMS ratio (%) n = 2” value was 0.0%.
In the case of `CCOc1cncc(-c2cc(C(=O)N3CCN(c4ccc(C(=O)NS(=O)(=O)CCC(F)(F)F)nn4)CC3)cc(C(C)(C)C)c2)c1` [Compound B2N016-01, 6-[4-[3-tert-Butyl-5-(5-ethoxypyridin-3-yl)benzoyl]piperazin-1-yl]-N-(3,3,3-trifluoropropylsulfonyl)pyridazine-3-carboxamide], the “ASMS ratio (%) n = 1” value was 0.0% and the “ASMS ratio (%) n = 2” value was 0.0%.
In the case of `CCOc1cncc(-c2cc(C(=O)N3CCN(c4ccc(C(=O)NS(=O)(=O)CCC(F)(F)F)nn4)CC3)cc(C(F)(F)F)c2)c1` [Compound B2N018-01, 6-[4-[3-(5-Ethoxypyridin-3-yl)-5-(trifluoromethyl)benzoyl]piperazin-1-yl]-N-(3,3,3-trifluoropropylsulfonyl)pyridazine-3-carboxamide], the “ASMS ratio (%) n = 1” value was 0.0% and the “ASMS ratio (%) n = 2” value was 1.0%.
With `CCOc1cncc(C#Cc2cc(C(=O)N3CCN(c4ccc(C(=O)NS(=O)(=O)CCC(F)(F)F)nn4)CC3)cc(C(F)(F)F)c2)c1` [Compound B2N020-01, 6-[4-[3-[2-(5-Ethoxypyridin-3-yl)ethynyl]-5-(trifluoromethyl)benzoyl]piperazin-1-yl]-N-(3,3,3-trifluoropropylsulfonyl)pyridazine-3-carboxamide] the “ASMS ratio (%) n = 1” value was 0.0% and the “ASMS ratio (%) n = 2” value was 0.0%.
With `CCOc1cccc(-c2cnn(-c3cc(C(=O)N4CCN(c5ccc(C(=O)NS(=O)(=O)CCC(F)(F)F)nn5)CC4)cc(C(F)(F)F)c3)c2)c1` [Compound B2N021-01, 6-[4-[3-[4-(3-Ethoxyphenyl)pyrazol-1-yl]-5-(trifluoromethyl)benzoyl]piperazin-1-yl]-N-(3,3,3-trifluoropropylsulfonyl)pyridazine-3-carboxamide] the “ASMS ratio (%) n = 2” value was 0.0%.
With `CCOc1cncc(-c2cnn(-c3cc(C(=O)N4CCN(c5ccc(C(=O)NS(=O)(=O)CCC(F)(F)F)nn5)CC4)cc(C(F)(F)F)c3)c2)c1` [Compound B2N022-01, 6-[4-[3-[4-(5-Ethoxypyridin-3-yl)pyrazol-1-yl]-5-(trifluoromethyl)benzoyl]piperazin-1-yl]-N-(3,3,3-trifluoropropylsulfonyl)pyridazine-3-carboxamide] the “ASMS ratio (%) n = 1” value was 0.0% and the “ASMS ratio (%) n = 2” value was 0.0%.
`CCOc1cccc(-c2csc(C(=O)N3CCN(c4ccc(C(=O)NS(=O)(=O)CCC(F)(F)F)cc4)CC3)c2)c1` [Compound B2N023-01, 4-[4-[4-(3-Ethoxyphenyl)thiophene-2-carbonyl]piperazin-1-yl]-N-(3,3,3-trifluoropropylsulfonyl)benzamide] was tested, and the “ASMS ratio (%) n = 1” value was 0.0% and the “ASMS ratio (%) n = 2” value was 0.0%.
With `CCOc1cncc(-c2csc(C(=O)N3CCN(c4ccc(C(=O)NS(=O)(=O)CCC(F)(F)F)cc4)CC3)c2)c1` [Compound B2N024-01, 4-[4-[4-(5-Ethoxypyridin-3-yl)thiophene-2-carbonyl]piperazin-1-yl]-N-(3,3,3-trifluoropropylsulfonyl)benzamide] the “ASMS ratio (%) n = 1” value was 0.0% and the “ASMS ratio (%) n = 2” value was 0.0%.
`CCOc1cccc(-c2ccc(C(=O)N3CCN(c4ccc(C(=O)NS(=O)(=O)CCC(F)(F)F)cc4)CC3)cc2C)c1` [Compound B2N025-01, 4-[4-[4-(3-Ethoxyphenyl)-3-methylbenzoyl]piperazin-1-yl]-N-(3,3,3-trifluoropropylsulfonyl)benzamide] was tested, and the “ASMS ratio (%) n = 1” value was 0.0% and the “ASMS ratio (%) n = 2” value was 0.0%.
`CCOc1cncc(-c2ccc(C(=O)N3CCN(c4ccc(C(=O)NS(=O)(=O)CCC(F)(F)F)cc4)CC3)cc2C)c1` [Compound B2N026-01, 4-[4-[4-(5-Ethoxypyridin-3-yl)-3-methylbenzoyl]piperazin-1-yl]-N-(3,3,3-trifluoropropylsulfonyl)benzamide] was tested, and the “ASMS ratio (%) n = 1” value was −1.5% and the “ASMS ratio (%) n = 2” value was −0.7%.
In the case of `CCOc1cncc(-c2ccc(C(=O)N3CCN(c4ccc(C(=O)NS(=O)(=O)CCC(F)(F)F)cc4)CC3)cc2F)c1` [Compound B2N028-01, 4-[4-[4-(5-Ethoxypyridin-3-yl)-3-fluorobenzoyl]piperazin-1-yl]-N-(3,3,3-trifluoropropylsulfonyl)benzamide], the “ASMS ratio (%) n = 1” value was −0.7% and the “ASMS ratio (%) n = 2” value was −0.9%.
In the case of `CCOc1cncc(C#Cc2ccccc2C(=O)N2CCN(c3ccc(C(=O)NS(=O)(=O)CCC(F)(F)F)cc3)CC2)c1` [Compound B2N030-01, 4-[4-[2-[2-(5-Ethoxypyridin-3-yl)ethynyl]benzoyl]piperazin-1-yl]-N-(3,3,3-trifluoropropylsulfonyl)benzamide], the “ASMS ratio (%) n = 1” value was 0.0% and the “ASMS ratio (%) n = 2” value was 0.0%.
`CCOc1cccc(C#Cc2cncc(C(=O)N3CCN(c4ccc(C(=O)NS(=O)(=O)CCC(F)(F)F)cc4)CC3)c2)c1` [Compound B2N031-01, 4-[4-[5-[2-(3-Ethoxyphenyl)ethynyl]pyridine-3-carbonyl]piperazin-1-yl]-N-(3,3,3-trifluoropropylsulfonyl)benzamide] was tested, and the “ASMS ratio (%) n = 1” value was 0.0% and the “ASMS ratio (%) n = 2” value was 0.0%.
In the case of `CCOc1cncc(C#Cc2cncc(C(=O)N3CCN(c4ccc(C(=O)NS(=O)(=O)CCC(F)(F)F)cc4)CC3)c2)c1` [Compound B2N032-01, 4-[4-[5-[2-(5-Ethoxypyridin-3-yl)ethynyl]pyridine-3-carbonyl]piperazin-1-yl]-N-(3,3,3-trifluoropropylsulfonyl)benzamide], the “ASMS ratio (%) n = 1” value was −0.4% and the “ASMS ratio (%) n = 2” value was −1.0%.
With `CCOc1cccc(-c2ccccc2CCC(=O)N2CCN(c3ccc(C(=O)NS(=O)(=O)CCC(F)(F)F)cc3)CC2)c1` [Compound B2N033-01, 4-[4-[3-[2-(3-Ethoxyphenyl)phenyl]propanoyl]piperazin-1-yl]-N-(3,3,3-trifluoropropylsulfonyl)benzamide] the “ASMS ratio (%) n = 1” value was 0.0% and the “ASMS ratio (%) n = 2” value was 0.0%.
